Measurements as given in patent US20260174701A1, “HIGH STRENGTH SINGLE UNIT DOSE FORMULATIONS AND METHODS OF USE THEREOF” (Praxis Precision Medicines, Inc., priority 2023, published 2026).

Key:
CaV3.1 = CaV3.1 (Homo sapiens, UniProt O43497); experiment: In vitro electrophysiology studies; format: cell-based
CaV3.3 = CaV3.3 (Homo sapiens, UniProt Q9P0X4); experiment: In vitro electrophysiology studies; format: cell-based
animal model of ET = experiment: Animal model of ET; settings: in vivo

Chain of CaV3.1 (O43497 whole entry): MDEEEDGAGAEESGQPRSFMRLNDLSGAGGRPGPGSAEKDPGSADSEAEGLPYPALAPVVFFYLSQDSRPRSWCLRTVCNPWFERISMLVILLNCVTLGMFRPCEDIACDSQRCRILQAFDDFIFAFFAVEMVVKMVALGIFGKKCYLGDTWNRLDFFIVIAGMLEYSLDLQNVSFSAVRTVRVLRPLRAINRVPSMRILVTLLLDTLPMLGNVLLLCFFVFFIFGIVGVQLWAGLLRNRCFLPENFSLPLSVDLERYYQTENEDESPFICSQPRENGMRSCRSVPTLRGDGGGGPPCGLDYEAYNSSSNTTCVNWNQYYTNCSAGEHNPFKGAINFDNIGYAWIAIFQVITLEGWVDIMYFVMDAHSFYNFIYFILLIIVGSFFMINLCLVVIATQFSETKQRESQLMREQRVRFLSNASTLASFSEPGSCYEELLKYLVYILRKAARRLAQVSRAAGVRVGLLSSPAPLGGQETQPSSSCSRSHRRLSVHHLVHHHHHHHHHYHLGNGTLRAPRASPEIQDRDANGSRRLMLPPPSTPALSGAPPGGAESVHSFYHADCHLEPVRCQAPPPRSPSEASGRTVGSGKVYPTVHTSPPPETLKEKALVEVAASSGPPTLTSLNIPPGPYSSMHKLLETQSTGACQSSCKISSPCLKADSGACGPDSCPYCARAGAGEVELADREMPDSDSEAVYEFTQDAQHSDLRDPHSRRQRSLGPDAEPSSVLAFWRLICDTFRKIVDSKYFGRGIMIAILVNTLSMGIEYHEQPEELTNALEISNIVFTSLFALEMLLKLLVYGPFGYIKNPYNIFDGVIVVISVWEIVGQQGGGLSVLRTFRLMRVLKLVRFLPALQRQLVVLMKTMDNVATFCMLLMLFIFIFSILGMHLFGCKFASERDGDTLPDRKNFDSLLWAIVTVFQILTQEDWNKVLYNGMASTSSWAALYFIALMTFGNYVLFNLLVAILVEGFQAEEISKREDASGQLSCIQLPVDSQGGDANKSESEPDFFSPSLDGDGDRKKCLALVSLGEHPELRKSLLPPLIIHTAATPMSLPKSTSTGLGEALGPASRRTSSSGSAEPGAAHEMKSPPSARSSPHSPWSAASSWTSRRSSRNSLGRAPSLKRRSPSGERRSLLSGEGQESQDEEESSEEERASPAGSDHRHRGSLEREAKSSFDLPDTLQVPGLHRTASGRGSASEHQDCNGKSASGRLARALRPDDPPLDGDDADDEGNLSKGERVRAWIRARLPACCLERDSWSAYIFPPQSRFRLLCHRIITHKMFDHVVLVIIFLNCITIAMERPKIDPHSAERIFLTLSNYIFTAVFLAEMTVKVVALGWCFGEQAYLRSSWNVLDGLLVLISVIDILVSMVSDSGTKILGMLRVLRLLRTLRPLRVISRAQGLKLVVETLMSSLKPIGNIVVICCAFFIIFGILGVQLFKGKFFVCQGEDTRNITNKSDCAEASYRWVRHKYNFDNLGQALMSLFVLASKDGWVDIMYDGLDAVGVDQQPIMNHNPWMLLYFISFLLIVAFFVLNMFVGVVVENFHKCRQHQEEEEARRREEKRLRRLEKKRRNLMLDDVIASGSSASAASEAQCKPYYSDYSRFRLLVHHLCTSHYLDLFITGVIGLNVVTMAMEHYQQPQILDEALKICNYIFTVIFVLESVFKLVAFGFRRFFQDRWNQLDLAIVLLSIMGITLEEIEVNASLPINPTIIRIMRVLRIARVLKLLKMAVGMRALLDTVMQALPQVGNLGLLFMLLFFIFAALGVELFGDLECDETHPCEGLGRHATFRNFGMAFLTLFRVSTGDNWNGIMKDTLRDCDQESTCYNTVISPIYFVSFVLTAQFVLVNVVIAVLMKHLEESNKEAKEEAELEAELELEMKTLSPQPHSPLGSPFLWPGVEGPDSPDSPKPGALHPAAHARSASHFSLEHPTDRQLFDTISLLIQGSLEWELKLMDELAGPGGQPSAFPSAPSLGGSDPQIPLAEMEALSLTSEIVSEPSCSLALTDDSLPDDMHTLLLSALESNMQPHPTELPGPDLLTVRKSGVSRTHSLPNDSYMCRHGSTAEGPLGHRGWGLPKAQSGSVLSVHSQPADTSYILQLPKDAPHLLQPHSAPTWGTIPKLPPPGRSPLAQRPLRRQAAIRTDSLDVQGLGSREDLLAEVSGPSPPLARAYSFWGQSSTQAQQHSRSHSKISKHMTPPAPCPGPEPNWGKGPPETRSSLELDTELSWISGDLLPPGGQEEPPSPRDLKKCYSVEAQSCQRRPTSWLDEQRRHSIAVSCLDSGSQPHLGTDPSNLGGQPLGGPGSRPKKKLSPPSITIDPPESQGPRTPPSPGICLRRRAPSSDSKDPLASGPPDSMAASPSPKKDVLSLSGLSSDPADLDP
Chain of CaV3.3 (Q9P0X4 whole entry): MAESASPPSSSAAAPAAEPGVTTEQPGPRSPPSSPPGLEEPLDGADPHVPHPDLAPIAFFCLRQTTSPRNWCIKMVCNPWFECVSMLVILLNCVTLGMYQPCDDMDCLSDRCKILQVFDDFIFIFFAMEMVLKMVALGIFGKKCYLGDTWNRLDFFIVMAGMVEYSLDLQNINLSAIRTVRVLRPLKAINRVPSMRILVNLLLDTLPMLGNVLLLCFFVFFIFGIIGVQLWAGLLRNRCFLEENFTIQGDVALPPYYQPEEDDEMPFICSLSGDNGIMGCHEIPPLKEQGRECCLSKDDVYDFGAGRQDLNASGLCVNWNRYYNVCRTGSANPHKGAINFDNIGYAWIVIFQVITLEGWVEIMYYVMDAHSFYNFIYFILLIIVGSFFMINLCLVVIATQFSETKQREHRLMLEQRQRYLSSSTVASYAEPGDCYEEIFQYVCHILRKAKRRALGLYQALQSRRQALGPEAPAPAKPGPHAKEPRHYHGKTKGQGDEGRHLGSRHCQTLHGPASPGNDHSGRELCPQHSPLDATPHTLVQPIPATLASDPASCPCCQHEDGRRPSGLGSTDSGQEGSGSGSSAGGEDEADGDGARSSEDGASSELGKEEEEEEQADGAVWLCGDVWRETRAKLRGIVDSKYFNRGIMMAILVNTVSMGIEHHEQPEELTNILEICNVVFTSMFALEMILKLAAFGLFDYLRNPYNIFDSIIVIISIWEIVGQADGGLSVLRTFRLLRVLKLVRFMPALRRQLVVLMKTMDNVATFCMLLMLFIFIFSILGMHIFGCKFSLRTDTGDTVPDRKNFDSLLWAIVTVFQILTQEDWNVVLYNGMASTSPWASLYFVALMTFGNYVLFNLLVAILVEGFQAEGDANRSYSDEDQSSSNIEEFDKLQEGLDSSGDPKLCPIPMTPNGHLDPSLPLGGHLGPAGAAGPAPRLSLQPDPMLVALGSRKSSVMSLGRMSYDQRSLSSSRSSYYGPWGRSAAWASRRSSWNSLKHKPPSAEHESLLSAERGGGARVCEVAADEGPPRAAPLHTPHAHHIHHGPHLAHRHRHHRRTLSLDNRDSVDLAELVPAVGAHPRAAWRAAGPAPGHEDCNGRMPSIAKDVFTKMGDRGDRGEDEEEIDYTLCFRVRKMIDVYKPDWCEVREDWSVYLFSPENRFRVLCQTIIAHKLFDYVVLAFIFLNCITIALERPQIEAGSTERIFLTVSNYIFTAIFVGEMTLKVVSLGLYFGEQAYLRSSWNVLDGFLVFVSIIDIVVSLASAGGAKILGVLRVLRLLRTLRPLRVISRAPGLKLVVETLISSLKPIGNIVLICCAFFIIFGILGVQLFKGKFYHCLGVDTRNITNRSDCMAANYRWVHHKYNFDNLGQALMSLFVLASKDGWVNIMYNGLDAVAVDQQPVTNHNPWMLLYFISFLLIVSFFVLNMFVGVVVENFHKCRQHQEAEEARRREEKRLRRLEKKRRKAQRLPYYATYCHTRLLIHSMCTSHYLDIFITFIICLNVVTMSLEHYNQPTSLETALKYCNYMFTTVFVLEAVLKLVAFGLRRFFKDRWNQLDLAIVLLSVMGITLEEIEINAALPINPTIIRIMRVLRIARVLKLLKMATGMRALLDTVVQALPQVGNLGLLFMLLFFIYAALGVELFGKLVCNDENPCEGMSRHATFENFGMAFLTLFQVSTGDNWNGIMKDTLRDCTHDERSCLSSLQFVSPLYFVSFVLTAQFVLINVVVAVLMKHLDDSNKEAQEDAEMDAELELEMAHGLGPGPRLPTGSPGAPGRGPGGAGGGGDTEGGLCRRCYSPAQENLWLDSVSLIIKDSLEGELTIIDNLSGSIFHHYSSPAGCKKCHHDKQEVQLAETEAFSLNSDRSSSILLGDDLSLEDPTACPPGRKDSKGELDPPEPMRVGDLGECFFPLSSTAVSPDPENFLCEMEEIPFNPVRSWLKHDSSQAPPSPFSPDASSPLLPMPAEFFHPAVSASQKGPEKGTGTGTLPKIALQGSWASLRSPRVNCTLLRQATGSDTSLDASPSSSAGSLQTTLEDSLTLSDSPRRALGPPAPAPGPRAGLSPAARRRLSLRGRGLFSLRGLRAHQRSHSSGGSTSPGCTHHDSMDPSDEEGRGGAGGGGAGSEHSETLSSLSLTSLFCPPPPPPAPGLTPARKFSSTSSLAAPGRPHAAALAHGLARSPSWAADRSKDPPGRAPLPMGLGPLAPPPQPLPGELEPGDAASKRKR

- Potency for T-type Ca2+ channels (CaV3.1): nanomolar
- Potency for T-type Ca2+ channels (CaV3.3): nanomolar
Compound: CC(C)(C)NC(=O)CN1CCC(CNC(=O)c2cc(F)cc(Cl)c2)CC1.Cl [PRAX-944, N-((1-(2-(tert-butylamino)-2-oxoethyl)piperidin-4-yl)methyl)-3-chloro-5-fluorobenzamide hydrochloride]
- Activity in an animal model of ET (animal model of ET): robust activity
